Starred links: 1 amine or outer side, 2 acyl side, 3 side chain; linkers in the order of their positions; H or OH if unused. Residues, ends and D or L forms follow the SMILES beside them. *: point of attachment. EDANS = O=S(=O)(O)c1cccc2c(NCCN*)cccc12; pNA = O=[N+]([O-])c1ccc(N*)cc1; AMC = Cc1cc(=O)oc2cc(N*)ccc12; Suc = O=C(CCC(=O)[*:2])[*:1]
Legend:
[1] = test system: ADAMTS13; experiment: Cleavage of peptidyl substrates by ADAMTS13 in PRP (optical density / fluorescence); format: biochemical; conditions: for cleavage by ADAMTS13 in PRP: normal PRP 20 µl, 10 mM Tris-HCl pH 8.0, 37° C, Ex 360 nm/ Em 460 nm
Procedure: As discussed above, Furlan et al. reported that some peptidyl-pNA moieties, such as XLY-pNA and XVY-pNA, were not substrates for ADAMTS13. We prepared LVY-pNA and tested it for its ability to be cleaved by ADAMTS 13. The results shown in Figure 2 confirm the findings of Furlan et al., i.e., LVY-pNA was not cleaved by ADAMTS13.
In order to determine the effect of modifying the length of the peptide sequence conjugated to the AMC fluorochrome, normal PRP (20 µl) was incubated at 37° C with a final concentration of 0.8 mM Suc-LLVY-AMC or LVY-AMC in 10 mM Tris-HCl pH 8.0 buffer in total volume of 200 µl. Fluorescence was measured using a microtiter fluorophotometric plate reader (Ex 360 nm/ Em 460 nm).

[2] = test system: ADAMTS13 found on platelets; experiment: FRET substrate cleavage by isolated platelets; format: biochemical; conditions: 8 µg/ml substrate, 10mM Tris-HCl pH 8.0, 37°C, Ex 360 nm/ Em 440 nm, Figure 4
Procedure: ADAMTS13 activity was measured using a fluorescent substrate attached to a donor moiety and an acceptor moiety that functions by fluorescence resonance energy transfer (FRET). The ADAMTS 13 selective substrate, NH2-Arg-Lys(DABCYL)-NLVYMVTGD(EDANS)-Arg-COOH, was used in this example. The NLVYMVTGD peptide sequence of this substrate is homologous to the ADAMTS13 cleavage site on VWF. The intact peptidyl substrate has low fluorescence, due to quenching of the […]. Cleavage of the substrate between the tyrosine and methionine of the peptide sequence results in an increase in fluorescence.
Isolated platelets in 10mM Tris-HCl pH 8.0 assay buffer were incubated with a final concentration of 8 µg/ml of the FRET substrate at 37°C. The fluorescence was measured in a spectrofluorometric plate reader (Ex 360 nm/ Em 440 nm). […] The skilled artisan can design other FRET substrates for measuring ADAMTS 13 activity using his or her own knowledge and the teachings herein.

Compound: Cc1cc(=O)oc2cc(NC(=O)[C@H](Cc3ccc(O)cc3)NC(=O)[C@@H](NC(=O)[C@@H](N)CC(C)C)C(C)C)ccc12 [LVY-AMC, Leu-Val-Tyr-AMC] (H-Leu-Val-Tyr-{AMC})
- cleavage by ADAMTS13 in PRP ([1]; 0.8 mM substrate, Figure 3): cleaved

Compound: CC(C)C[C@H](N)C(=O)N[C@H](C(=O)N[C@@H](Cc1ccc(O)cc1)C(=O)Nc1ccc([N+](=O)[O-])cc1)C(C)C [LVY-pNA] (H-Leu-Val-Tyr-pNA)
- cleavage by ADAMTS13 ([1]; LVY-pNA tested as substrate, Figure 2): not cleaved

Compound: Cc1cc(=O)oc2cc(NC(=O)[C@H](Cc3ccc(O)cc3)NC(=O)[C@@H](NC(=O)[C@H](CC(C)C)NC(=O)[C@H](CC(C)C)NC(=O)CCC(=O)O)C(C)C)ccc12 [Suc-LLVY-AMC, Suc-Leu-Leu-Val-Tyr-AMC] (Suc-LLVY-{AMC})
- cleavage by ADAMTS13 in PRP ([1]; 0.8 mM substrate, Figure 3): cleaved
- fluorescence signal over time compared to the other AMC substrate ([1]; normal PRP, 0.8 mM substrate, 37° C, Figure 3): higher signal over time

Compound: NH2-Arg-Lys-(DABCYL)- Asn-Leu- Val-Tyr-Met- Val- Thr-Gly-Asp-(EDANS)-Arg-COOH ({H2N-Arg-K(DABCYL)}-NLVYMVTGD(EDANS)R-OH; also: EDANS after Asp (on Asp side chain or between Asp and Arg))
- fluorescence on incubation with platelets (cleavage of FRET substrate) [2]: increased fluorescence over time

Reference: EP1779117B1, “METHODS FOR MEASURING ADAMTS13 ACTIVITY ON THE SURFACE OF PLATELETS” (American Diagnostica Inc., priority 2004, dated 2006)
